Source: US20100286219A1, “1, 3-Dihydroimidazoles for Treating Cardiovascular Disorders” (BIAL - PORTELA & CA S.A., priority 2007, published 2010)
Each block holds one molecule with its values, some of them ahead of it.

Key:
DβH [1] = target: T1, DβH (Rattus norvegicus, UniProt Q05754); assay: Noradrenaline tissue levels in rat heart and brain after oral administration; format: in vivo; conditions: for dose dependence of effect upon noradrenaline / time of maximum effect upon noradrenaline: rat (data not shown); for effect on noradrenaline tissue levels in brain parietal cortex and brain frontal cortex: 9 h after oral administration
T1 construct: noradrenaline levels in the rat heart (left atrium and left ventricle) and brain (frontal and parietal cortex); from tissue; host or cells: rat heart (left atrium, left ventricle) and brain (frontal and parietal cortex), in vivo
T1 sequence (Q05754 1-620): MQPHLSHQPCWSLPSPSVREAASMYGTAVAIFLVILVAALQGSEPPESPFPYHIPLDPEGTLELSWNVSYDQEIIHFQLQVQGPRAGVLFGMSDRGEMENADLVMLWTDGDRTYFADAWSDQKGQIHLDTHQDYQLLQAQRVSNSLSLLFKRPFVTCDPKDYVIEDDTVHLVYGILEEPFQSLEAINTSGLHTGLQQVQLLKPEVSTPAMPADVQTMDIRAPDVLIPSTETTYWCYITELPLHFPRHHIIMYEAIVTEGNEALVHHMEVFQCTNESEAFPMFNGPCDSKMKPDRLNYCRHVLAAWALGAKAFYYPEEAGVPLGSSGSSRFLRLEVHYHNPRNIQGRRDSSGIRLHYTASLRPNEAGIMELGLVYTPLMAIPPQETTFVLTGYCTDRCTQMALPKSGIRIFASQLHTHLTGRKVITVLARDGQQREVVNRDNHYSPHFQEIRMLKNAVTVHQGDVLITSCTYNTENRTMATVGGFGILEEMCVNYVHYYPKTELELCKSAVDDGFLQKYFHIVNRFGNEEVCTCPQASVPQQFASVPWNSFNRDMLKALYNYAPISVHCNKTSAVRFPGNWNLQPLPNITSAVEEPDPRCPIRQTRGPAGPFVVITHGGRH
Procedure: FIG. 3 is four graphs showing noradrenaline levels in the rat heart (left atrium and left ventricle) and brain (frontal and parietal cortex) 9 h after the oral administration of 4 or nepicastat 1. Columns are means of 5 determinations per group; vertical lines indicated S.E.M.

DβH [2] = target: T2, DβH (Mus musculus, UniProt Q64237); assay: Noradrenaline tissue levels in mouse heart and brain after oral administration; format: in vivo; conditions: for Time of maximum effect (Tmax) for noradrenaline tissue reduction: mouse heart (left ventricle), 100 mg/kg oral; for recovery of initial noradrenaline tissue levels / duration of action (in words): mouse heart; for recovery of initial noradrenaline tissue levels: 100 mg/kg, at 24 h; for duration of action (in words): time course at 100 mg/kg; for dose at which maximal inhibitory effect was attained: mouse left ventricle noradrenaline, 9 h after administration; for effect on noradrenaline levels in left ventricle / effect on noradrenaline tissue levels in brain parietal cortex: mouse, 9 h after oral administration
T2 construct: noradrenaline levels in the mouse left ventricle and brain parietal cortex 9 h after oral administration; from tissue; host or cells: mouse left ventricle and brain parietal cortex (in vivo)
T2 sequence (Q64237 1-622): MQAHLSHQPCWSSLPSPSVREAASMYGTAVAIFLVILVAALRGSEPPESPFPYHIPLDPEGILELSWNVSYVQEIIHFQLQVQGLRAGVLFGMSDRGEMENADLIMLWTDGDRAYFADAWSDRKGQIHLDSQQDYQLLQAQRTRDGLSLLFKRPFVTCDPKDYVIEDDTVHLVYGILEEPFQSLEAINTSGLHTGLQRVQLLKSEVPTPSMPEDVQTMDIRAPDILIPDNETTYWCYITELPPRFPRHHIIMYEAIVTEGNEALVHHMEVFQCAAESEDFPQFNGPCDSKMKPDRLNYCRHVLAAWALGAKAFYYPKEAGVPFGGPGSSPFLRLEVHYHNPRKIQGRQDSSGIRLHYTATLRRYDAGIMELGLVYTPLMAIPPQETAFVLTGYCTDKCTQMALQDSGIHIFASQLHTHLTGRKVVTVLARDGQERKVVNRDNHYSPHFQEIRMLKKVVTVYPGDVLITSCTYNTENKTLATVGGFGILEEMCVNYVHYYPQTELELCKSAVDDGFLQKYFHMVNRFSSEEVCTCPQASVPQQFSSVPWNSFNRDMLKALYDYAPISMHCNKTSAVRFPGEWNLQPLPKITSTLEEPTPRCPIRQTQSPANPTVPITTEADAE
Procedure: FIG. 1 is a graph showing the time-dependent decrease of noradrenaline levels in the left ventricle of mice treated orally with 100 mg/kg of 4 or nepicastat 1. Symbols are means of 5 determinations per group; vertical lines indicate S.E.M.
FIG. 2 is two graphs showing noradrenaline levels in the mouse left ventricle and brain parietal cortex 9 h after oral administration of 4 or nepicastat 1. Symbols are means of 5 determinations per group; vertical lines indicate S.E.M.
Time of maximum effect (Tmax) for noradrenaline tissue reduction by both 4 and 1 appears to be at 9 h post-dose (FIG. 1). Thereafter, noradrenaline tissue levels recover, reaching 50% recovery of initial tissue levels at 24 h.
For both 4 and 1, the maximal inhibitory effect was attained at a dose of 100 mg/kg.

human DβH = target: T3, human DβH (Homo sapiens, UniProt P09172); assay: DβH activity in SK-N-SH cells (β-hydroxylation of dopamine to noradrenaline); format: cell-based; conditions: for DβH activity, Mean ± SEM, % of control: compound 5 μM; for IC50 against human DβH activity (in words): concentration-dependent decrease in β-hydroxylation of dopamine; for inhibition of DβH activity (in words): as listed in Table 1, 5 μM
T3 construct: endogenous in cells; host or cells: SK-N-SH cells
T3 sequence (P09172 1-617): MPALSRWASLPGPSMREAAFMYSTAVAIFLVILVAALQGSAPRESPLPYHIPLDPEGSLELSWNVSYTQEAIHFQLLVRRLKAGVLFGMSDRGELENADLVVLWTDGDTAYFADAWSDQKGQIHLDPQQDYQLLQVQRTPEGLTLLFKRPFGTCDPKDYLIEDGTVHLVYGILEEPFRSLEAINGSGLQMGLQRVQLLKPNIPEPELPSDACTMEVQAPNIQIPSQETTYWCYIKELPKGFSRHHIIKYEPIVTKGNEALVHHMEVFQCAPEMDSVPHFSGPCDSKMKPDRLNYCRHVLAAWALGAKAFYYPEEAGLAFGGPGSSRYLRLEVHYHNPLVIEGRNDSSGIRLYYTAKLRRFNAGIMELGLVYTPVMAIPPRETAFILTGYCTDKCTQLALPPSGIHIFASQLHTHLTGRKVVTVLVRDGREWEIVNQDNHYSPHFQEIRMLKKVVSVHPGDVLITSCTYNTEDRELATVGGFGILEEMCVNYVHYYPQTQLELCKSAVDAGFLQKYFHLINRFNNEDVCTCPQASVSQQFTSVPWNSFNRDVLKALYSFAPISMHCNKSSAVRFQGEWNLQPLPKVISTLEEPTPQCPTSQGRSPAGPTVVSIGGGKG

[3] = substrate: NCCc1ccc(O)c(O)c1; assay: cells, lysate or membranes; conditions: other: SK-N-SH cells, increasing concentrations of dopamine

Molecule: CNCCc1c[nH]c(=S)n1[C@H]1COc2ccccc2C1.Cl [Compound 29, (R)-1-Chroman-3-yl-5-(2-methylaminoethyl)-1,3-dihydroimidazole-2-thione hydrochloride]
inhibition of DβH activity (in words) (human DβH): markedly inhibit

Molecule: Cl.NCCc1c[nH]c(=S)n1[C@H]1COc2ccc(F)cc2C1 [Compound 7, (R)-5-(2-aminoethyl)-1-(6-fluorochroman-3-yl)-1,3-dihydroimidazole-2-thione hydrochloride]
inhibition of DβH activity (in words) (human DβH): markedly inhibit | DβH activity, Mean ± SEM, % of control (human DβH): 8.0 ± 0.1 % of control

B1: human DβH (Homo sapiens) (protein)
chain: T3 sequence (P09172 1-617)
Km [3]: 20.6 ± 1.6 µM | Vmax [3]: 153.8±4.4 nmol mg protein-1 h-1

The next lines start with results.

dose dependence of effect upon noradrenaline (DβH [1]): dependent on the dose administered | time of maximum effect upon noradrenaline (DβH [1]): 9 h | effect on noradrenaline tissue levels in brain parietal cortex and brain frontal cortex (DβH [1]; rat): produced a marked decrease | Time of maximum effect (Tmax) for noradrenaline tissue reduction (DβH [2]): 9 h | recovery of initial noradrenaline tissue levels (DβH [2]): 50% | duration of action (in words) (DβH [2]): long acting | dose at which maximal inhibitory effect was attained (DβH [2]): 100 mg/kg | effect on noradrenaline tissue levels in brain parietal cortex (DβH [2]): produced a dose-dependent decrease | DβH activity, Mean ± SEM, % of control (human DβH): 0.0 ± 0.3 % of control | IC50 against human DβH activity (in words) (human DβH): low nM range
Molecule: NCc1c[nH]c(=S)n1[C@H]1CCc2c(F)cc(F)cc2C1 [Nepicastat 1, nepicastat, reference compound]
effect on noradrenaline levels in left ventricle (DβH [2]): reduced noradrenaline levels in a dose-dependent manner

dose dependence of effect upon noradrenaline (DβH [1]): dependent on the dose administered | time of maximum effect upon noradrenaline (DβH [1]): 9 h | inhibitory effect upon noradrenaline levels in left atrium and left ventricle (DβH [1]; rat, 100 mg/kg oral, 9 h, compared with 1 (100 mg/kg)): more pronounced than those elicited by 1 | effect on noradrenaline tissue levels in brain parietal cortex and brain frontal cortex (DβH [1]; rat): failed to affect | Time of maximum effect (Tmax) for noradrenaline tissue reduction (DβH [2]): 9 h | recovery of initial noradrenaline tissue levels (DβH [2]): 50% | duration of action (in words) (DβH [2]): long acting | dose at which maximal inhibitory effect was attained (DβH [2]): 100 mg/kg | effect on noradrenaline tissue levels in brain parietal cortex (DβH [2]): failed to affect | inhibition of DβH activity (in words) (human DβH): markedly inhibit | IC50 against human DβH activity (in words) (human DβH): low nM range
Molecule: Cl.NCCc1c[nH]c(=S)n1[C@H]1COc2c(F)cc(F)cc2C1 [Compound 4, (R)-5-(2-aminoethyl)-1-(6,8-difluorochroman-3-yl)-1,3-dihydroimidazole-2-thione hydrochloride]
site of DβH inhibition, periphery versus brain (conclusion) (DβH [1]; concluded from mouse and rat studies): exclusively in the periphery, being devoid of inhibitory effects in the brain | effect on noradrenaline levels in left ventricle (DβH [2]): reduced noradrenaline levels in a dose-dependent manner

inhibition of DβH activity (in words) (human DβH): markedly inhibit | IC50 against human DβH activity (in words) (human DβH): low nM range
Molecule: Cl.NCCc1c[nH]c(=S)n1[C@H]1CCc2c(F)cc(F)cc2C1 [Compound 2, (S)-5-(2-aminoethyl)-1-(5,7-difluoro-1,2,3,4-tetrahydronaphthalen-2-yl)-1,3-dihydroimidazole-2-thione hydrochloride]
